Experimental data reported in PubChem BioAssay (NCI).
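Method: 48-hour compound exposure of cells in 96-well plates, five concentrations, linear interpolation of endpoints. TGI is the concentration that stops growth completely.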

Experiments:
Test in all cases: NCI tumour cell line growth inhibition, 48 h
786-0 renal = tested on: 786-0 renal
A498 renal = tested on: A498 renal
A549 NSCLC = tested on: A549 NSCLC
ACHN renal = tested on: ACHN renal
CAKI-1 renal = tested on: CAKI-1 renal
CCRF-CEM leukemia = tested on: CCRF-CEM leukemia
COLO 205 colon = tested on: COLO 205 colon
DLD-1 colon = tested on: DLD-1 colon
DMS 114 small cell lung = tested on: DMS 114 small cell lung
DMS 273 small cell lung = tested on: DMS 273 small cell lung
EKVX NSCLC = tested on: EKVX NSCLC
HCC-2998 colon = tested on: HCC-2998 colon
HCT-116 colon = tested on: HCT-116 colon
HCT-15 colon = tested on: HCT-15 colon
HL-60(TB) leukemia = tested on: HL-60(TB) leukemia
HOP-18 NSCLC = tested on: HOP-18 NSCLC
HOP-62 NSCLC = tested on: HOP-62 NSCLC
HOP-92 NSCLC = tested on: HOP-92 NSCLC
HT29 colon = tested on: HT29 colon
IGROV1 ovarian = tested on: IGROV1 ovarian
K-562 leukemia = tested on: K-562 leukemia
KM12 colon = tested on: KM12 colon
KM20L2 colon = tested on: KM20L2 colon
LOX IMVI melanoma = tested on: LOX IMVI melanoma
LXFL 529 NSCLC = tested on: LXFL 529 NSCLC
M14 melanoma = tested on: M14 melanoma
M19-MEL melanoma = tested on: M19-MEL melanoma
MALME-3M melanoma = tested on: MALME-3M melanoma
MOLT-4 leukemia = tested on: MOLT-4 leukemia
NCI-H226 lung = tested on: NCI-H226 lung
NCI-H23 lung = tested on: NCI-H23 lung
NCI-H460 lung = tested on: NCI-H460 lung
NCI-H522 lung = tested on: NCI-H522 lung
OVCAR-3 ovarian = tested on: OVCAR-3 ovarian
OVCAR-4 ovarian = tested on: OVCAR-4 ovarian
OVCAR-5 ovarian = tested on: OVCAR-5 ovarian
OVCAR-8 ovarian = tested on: OVCAR-8 ovarian
RPMI-8226 leukemia = tested on: RPMI-8226 leukemia
RXF 393 renal = tested on: RXF 393 renal
RXF-631 renal = tested on: RXF-631 renal
SF-268 CNS = tested on: SF-268 CNS
SF-295 CNS = tested on: SF-295 CNS
SF-539 CNS = tested on: SF-539 CNS
SK-MEL-2 melanoma = tested on: SK-MEL-2 melanoma
SK-MEL-28 melanoma = tested on: SK-MEL-28 melanoma
SK-MEL-5 melanoma = tested on: SK-MEL-5 melanoma
SK-OV-3 ovarian = tested on: SK-OV-3 ovarian
SN12C renal = tested on: SN12C renal
SNB-19 CNS = tested on: SNB-19 CNS
SNB-75 CNS = tested on: SNB-75 CNS
SNB-78 CNS = tested on: SNB-78 CNS
SR leukemia = tested on: SR leukemia
SW-620 colon = tested on: SW-620 colon
TK-10 renal = tested on: TK-10 renal
U251 CNS = tested on: U251 CNS
UACC-257 melanoma = tested on: UACC-257 melanoma
UACC-62 melanoma = tested on: UACC-62 melanoma
UO-31 renal = tested on: UO-31 renal
XF 498 CNS = tested on: XF 498 CNS

## CC1=NN(c2ccccc2)C(=O)C1=C1SCCS1
786-0 renal
  TGI: > 100 µM
A498 renal
  TGI: > 100 µM
A549 NSCLC
  TGI: > 100 µM
ACHN renal
  TGI: > 100 µM
CAKI-1 renal
  TGI: > 100 µM
CCRF-CEM leukemia
  TGI: > 65.5 µM
COLO 205 colon
  TGI: > 56.8 µM
DLD-1 colon
  TGI: > 57.9 µM
DMS 114 small cell lung
  TGI: > 67.7 µM
DMS 273 small cell lung
  TGI: > 100 µM
EKVX NSCLC
  TGI: > 100 µM
HCC-2998 colon
  TGI: > 100 µM
HCT-116 colon
  TGI: > 64.6 µM
HCT-15 colon
  TGI: > 59.7 µM
HL-60(TB) leukemia
  TGI: > 58.9 µM
HOP-18 NSCLC
  TGI: > 100 µM
HOP-62 NSCLC
  TGI: > 100 µM
HOP-92 NSCLC
  TGI: > 85.8 µM
HT29 colon
  TGI: > 100 µM
IGROV1 ovarian
  TGI: > 100 µM
K-562 leukemia
  TGI: > 69.1 µM
KM12 colon
  TGI: > 100 µM
KM20L2 colon
  TGI: > 100 µM
LOX IMVI melanoma
  TGI: > 63.4 µM
LXFL 529 NSCLC
  TGI: > 100 µM
M14 melanoma
  TGI: > 100 µM
M19-MEL melanoma
  TGI: > 100 µM
MALME-3M melanoma
  TGI: > 100 µM
MOLT-4 leukemia
  TGI: > 100 µM
NCI-H226 lung
  TGI: > 100 µM
NCI-H23 lung
  TGI: > 100 µM
NCI-H460 lung
  TGI: > 100 µM
NCI-H522 lung
  TGI: 97.1 µM
OVCAR-3 ovarian
  TGI: > 100 µM
OVCAR-4 ovarian
  TGI: > 100 µM
OVCAR-5 ovarian
  TGI: > 100 µM
OVCAR-8 ovarian
  TGI: > 100 µM
RPMI-8226 leukemia
  TGI: > 49.5 µM
RXF 393 renal
  TGI: > 65.4 µM
RXF-631 renal
  TGI: > 100 µM
SF-268 CNS
  TGI: > 100 µM
SF-295 CNS
  TGI: > 100 µM
SF-539 CNS
  TGI: > 100 µM
SK-MEL-2 melanoma
  TGI: > 100 µM
SK-MEL-28 melanoma
  TGI: > 100 µM
SK-MEL-5 melanoma
  TGI: > 100 µM
SK-OV-3 ovarian
  TGI: > 100 µM
SN12C renal
  TGI: > 100 µM
SNB-19 CNS
  TGI: > 100 µM
SNB-75 CNS
  TGI: > 100 µM
SNB-78 CNS
  TGI: > 100 µM
SR leukemia
  TGI: > 54.4 µM
SW-620 colon
  TGI: > 53.8 µM
TK-10 renal
  TGI: > 100 µM
U251 CNS
  TGI: > 90.3 µM
UACC-257 melanoma
  TGI: > 100 µM
UACC-62 melanoma
  TGI: > 100 µM
UO-31 renal
  TGI: > 100 µM
XF 498 CNS
  TGI: > 100 µM

## CCCCCCC(=O)OC[n+]1ccc2c(C)c3[nH]c4ccccc4c3c(C)c2c1
A498 renal
  TGI: 2.19 µM
ACHN renal
  TGI: 12.4 µM
CAKI-1 renal
  TGI: 6.55 µM
HL-60(TB) leukemia
  TGI: > 100 µM
HOP-62 NSCLC
  TGI: 24.7 µM
HOP-92 NSCLC
  TGI: 23.9 µM
IGROV1 ovarian
  TGI: 30.8 µM
KM20L2 colon
  TGI: 2.96 µM
MOLT-4 leukemia
  TGI: 12.7 µM
OVCAR-5 ovarian
  TGI: 3.6 µM
RPMI-8226 leukemia
  TGI: 1.69 µM
RXF 393 renal
  TGI: 2.26 µM
RXF-631 renal
  TGI: > 100 µM
SF-268 CNS
  TGI: 2.52 µM
SK-MEL-2 melanoma
  TGI: 37.8 µM
SK-MEL-28 melanoma
  TGI: 3.1 µM
SK-OV-3 ovarian
  TGI: 6.31 µM
SR leukemia
  TGI: 8.77 µM
TK-10 renal
  TGI: 14.3 µM
UACC-62 melanoma
  TGI: 16.4 µM
UO-31 renal
  TGI: 26 µM
